Data as given in patent publication US20150291933A1, “CELL DIFFERENTIATION” (THE UNIVERSITY OF MANCHESTER, priority 2012, published 2015).
Entries after “also recorded” stand apart in the source; their conditions may differ. Where no end group is shown, it is not given here.

Experiments:
Human iPS cells (hiPSCs) [1] = assay: Effect of E-cadherin inhibitors on cell-cell contact in pluripotent hiPSCs (phase contrast); assay type: cell-based; conditions: 48 h in MTesR complete media, adherent feeder free
Procedure: Human iPS cells (hiPSCs) were grown under adherent feeder-free culture conditions. All cells were propagated for a minimum of two passages as feeder-free cultures to exclude unwanted residual mouse fibroblast feeder cells. Cells were cultured in MTesR complete medium (Stem Cell Technologies). Cells were cultured on Matrigel™- (BD Biosciences 356234) coated tissue culture grade plates. Matrigel-treated plates were coated with pre-diluted Matrigel™ (1:100 in DMEM/F12 media) and incubated at room temperature prior to use. Media was replenished every 24 h and cells were passaged upon confluency. Cells were dissociated using trypsin-EDTA.
Human iPS cells were grown under standard adherent feeder-free culture conditions prior to induction of differentiation.

Human iPS cells (hiPSCs) [2] = assay: Neural differentiation of hiPSCs using E-cadherin inhibitors, Nestin immunofluorescence; assay type: cell-based; conditions: day 7; for number of Nestin positive cells: treated daily, peptides 1 mM, antibody 2 μg/ml
Procedure: Human iPSCs were differentiated as previously described. Peptides A, B or C were supplemented to the media at a final concentration of 1 mM and E-cadherin neutralising antibody supplemented to the media at 2 μg/ml daily for 6-7 days. The equivalent volume of water was added to cultures as a vehicle control.
All other methodology was performed as outlined above in connection with neural differentiation and characterisation of resultant neural progenitor cells (NPCs). […] Accordingly, supplementation in this manner may be a preferred embodiment of methods of the invention as practiced upon pluripotent stem cells such as iPSCs.
To initiate differentiation confluent undifferentiated cells were dissociated and seeded at a low density onto gelatin coated wells in differentiation medium supplemented with/without E-cadherin-inhibitors for 7 days. To identify the phenotype of these cells, cultures were harvested at day 7 and immunofluorescent analysis of the neural progenitor cell marker Nestin was performed (FIG. 10).

human E-cadherin = target: T1, human E-cadherin (human, UniProt P12830 155-882); assay: cell-based or functional assay
T1 sequence: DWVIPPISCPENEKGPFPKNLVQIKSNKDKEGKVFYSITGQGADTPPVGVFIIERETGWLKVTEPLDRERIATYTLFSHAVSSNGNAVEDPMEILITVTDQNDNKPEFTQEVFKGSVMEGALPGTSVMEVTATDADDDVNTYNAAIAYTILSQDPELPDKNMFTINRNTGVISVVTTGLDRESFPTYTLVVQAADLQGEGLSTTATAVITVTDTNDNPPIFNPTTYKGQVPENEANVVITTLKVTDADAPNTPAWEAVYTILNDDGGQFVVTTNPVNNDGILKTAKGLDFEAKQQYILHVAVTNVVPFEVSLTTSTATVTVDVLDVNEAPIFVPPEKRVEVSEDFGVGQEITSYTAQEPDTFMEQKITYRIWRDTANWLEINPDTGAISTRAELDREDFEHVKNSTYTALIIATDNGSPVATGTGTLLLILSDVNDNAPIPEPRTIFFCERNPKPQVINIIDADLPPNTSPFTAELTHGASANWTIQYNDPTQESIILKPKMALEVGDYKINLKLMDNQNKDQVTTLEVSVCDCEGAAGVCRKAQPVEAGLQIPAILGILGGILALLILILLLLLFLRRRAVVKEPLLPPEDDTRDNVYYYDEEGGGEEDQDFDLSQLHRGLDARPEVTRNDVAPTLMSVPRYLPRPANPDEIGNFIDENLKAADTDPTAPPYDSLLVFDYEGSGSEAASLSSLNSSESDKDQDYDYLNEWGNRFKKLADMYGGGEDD

[3] = system: Human ES cells (HUES7, H9, MAN7); assay: Differentiation of human ES cells towards neural precursor cells in adherent culture, immunofluorescence of neural precursor markers; assay type: cell-based
Procedure: Human ES cell lines, HUES7 (passage 39-44), H9 (passage 50-55) and MAN7 (passage 18-21) were grown under adherent feeder-free culture conditions prior to induction of differentiation. Cells were cultured in STEMPRO® (Invitrogen—complete medium) which comprises; DMEM/F-12+GlutaMAX, 8 ng/ml FGF-basic factor (Peprotec), STEMPRO® hESC SFM Growth Supplement (1×), 1.8% BSA, and 0.1 Mm 2-mercaptoethanol. Cells were cultured on either Matrigel™- (BD Biosciences 356234) or Geltrex™- (Invitrogen 12760-021) coated tissue culture grade plates. Matrigel-treated plates were coated with pre-diluted Matrigel™ (1:100 in DMEM/F12 media) and incubated at room temperature prior to use. Geltrex™-coated plates were coated with pre-diluted Geltrex™ (1:29 in DMEM/F12 media) and incubated for 1 h at 37° C. prior to use. Media was replenished every 24 h and cells were passaged upon confluency. All cells were propagated for a minimum of two passages as feeder-free cultures to exclude unwanted residual mouse fibroblast feeder cells. Cells were dissociated either using trypsin-EDTA (Sigma) or Collagenase IV (Sigma-1 mg/ml final concentration) dependent on the ES cell line used.
Confluent undifferentiated cells were dissociated and seeded at a low density (2.0E5 cells/962 mm2) onto 0.1% w/v gelatin coated wells in differentiation medium alone (DMEM/F-12+GlutaMAX (Invitrogen), 10% Knockout Serum Replacement (KSR) (Invitrogen), Penicillin/Streptomycin (1×) (PAA) for 24 hours prior to media supplementation with an E-cadherin inhibiting peptide (H-Ser-Trp-Glu-Leu-Tyr-Tyr-Pro-Leu-Arg-Ala-Asn-Leu-NH2, >95% purity, acetate salt background) (Bachem) as published in Devemy & Blashuk (2009). Peptide was reconstituted at 30 mg/ml in sterile ddH2O (20 mM stock concentration), with a working concentration 500 μM for inhibition of human E-cadherin. Media (and peptide) were replenished every 2 days for 6-7 days. After this time peptide is no longer necessary. […]
Cells were fixed in 4% w/v paraformaldehyde and stained in situ (Mohamet et al, 2010). […] The cells were viewed on a Leica DM500 fluorescence microscope.

Human ES cells = assay: Assessment of non-neuronal lineages in directed neural differentiation of human ES cells; assay type: cell-based
Procedure: Confluent undifferentiated cells were dissociated and seeded at a low density (2.0E5 cells/962 mm2) onto 0.1% w/v gelatin coated wells in differentiation medium alone (DMEM/F-12+GlutaMAX (Invitrogen), 10% Knockout Serum Replacement (KSR) (Invitrogen), Penicillin/Streptomycin (1×) (PAA) for 24 hours prior to media supplementation with an E-cadherin inhibiting peptide (H-Ser-Trp-Glu-Leu-Tyr-Tyr-Pro-Leu-Arg-Ala-Asn-Leu-NH2, >95% purity, acetate salt background) (Bachem) as published in Devemy & Blashuk (2009). Peptide was reconstituted at 30 mg/ml in sterile ddH2O (20 mM stock concentration), with a working concentration 500 μM for inhibition of human E-cadherin. Media (and peptide) were replenished every 2 days for 6-7 days. After this time peptide is no longer necessary. Morphological analysis and immunostaining with markers for neural precursor cells and more mature neural cells were performed during the course of the differentiation protocol.
Cells were fixed in 4% w/v paraformaldehyde and stained in situ (Mohamet et al, 2010). […] The cells were viewed on a Leica DM500 fluorescence microscope. […]

With “SWELYYPL (Inhibitory peptide) [Peptide C]” the “loss of cell-cell contact, proportion of cells” value (Human iPS cells (hiPSCs) [1]) was 50-60%, the “Nestin positive cells, one experiment (variable results)” value (Human iPS cells (hiPSCs) [2]; peptide 1 mM, one experiment only) was “approx. 50%” and the “number of Nestin positive cells” value (Human iPS cells (hiPSCs) [2]) was 76%.

With SRELYYPLRANL [Peptide B, control] the “culture morphology / cell-cell contacts” value (Human iPS cells (hiPSCs) [1]) was “retain the compacted morphology typical of hiPSCs; also recorded: retain the compacted morphology of hiPSCs, without loss of cell-cell contacts” and the “number of Nestin positive cells” value (Human iPS cells (hiPSCs) [2]) was 33%.

With “E-cadherin neutralising antibody (SHE78.7 clone, Invitrogen 13-5700)” the loss of cell-cell contact in hiPSCs (phase contrast, 48 h, antibody 2 ug/ml) (human E-cadherin) was over 85%.

With “SWELYYPLRANL (SWELYYPLRANL-NH2; also: acetate salt) [Peptide A, Study 1 used H-Ser-Trp-Glu-Leu-Tyr-Tyr-Pro-Leu-Arg-Ala-Asn-Leu-NH2 (Bachem, acetate salt background)]” the “undifferentiated colonies (phase contrast)” value ([3]; cultured 6-7 days in media supplemented with peptide) was “no undifferentiated colonies were observed”, the “number of Nestin positive cells” value ([3]; media supplemented with peptide 500 μM, 7 days of differentiation, n=3) was 95.3% and the “NESTIN and VIMENTIN expression (immunofluorescence)” value ([3]; peptide 500 μM, harvested at day 7) was “homogenous expression”. The “α smooth muscle actin (mesoderm) expression” value (Human ES cells; cells harvested on day 15, n=3) was “only detected in 1 cell out of all cultures assessed”, the “staining of endoderm marker Forkhead box protein A2 (foxA2)” value (Human ES cells; differentiated for 15 days) was “no positive staining” and the “number of Nestin positive cells” value (Human iPS cells (hiPSCs) [2]) was 94%.

With SWELYYPLRANL (not fully specified) [Peptide A (SWELYYPLRANL)] the “loss of cell-cell contact in hiPSCs (phase contrast, 48 h, peptide 1 mM)” value (human E-cadherin) was over 85%.
